The test system of test [1] is human subcutaneoous mature adipocytes. As to the kind of experiment: Lipolytic activity: glycerol release in human adipocytes (Lipolysis Assay kit). The note with it: human subcutaneous mature adipocytes. It is filed as cell-based.
The subject of test [2] is 3T3-L1 mouse adipocytes. The experiment in a line: Lipolytic activity: glycerol release in differentiated 3T3-L1 mouse adipocytes (12 h). It counts as cell-based. The note with it: 3T3-L1 mouse adipocytes, 12 h. Here is the method: JCRB9014-A) from Tebu-Bio (Tebu-bio, Barcelona, Spain). Briefly, mouse adipocytes (3T3-L1 cells) were cultured in 48 well plates as described previously (Saez-Lopez et al., 2020). Adipocytes were differentiated using cell culture reagents purchased from Tebu-Bio and following the manufacturer's instructions. At day of differentiation cells were treated in duplicates with vehicle (DMSO), Caffeine (100 μg/ml), and each of the peptides at the specified doses in Table 6a below. At the end of the experiment (12 h), supernatants were collected and glycerol content was measured using a Glycerol Assay Kit (Sigma) following manufacturer's instructions.

[ ]: non-standard residue; d: D form.

On to “WDPEGV (H-[dW][dD][dP][dE]G[dV]-OH; SMILES CC(C)[C@@H](NC(=O)CNC(=O)[C@@H](CCC(=O)O)NC(=O)[C@H]1CCCN1C(=O)[C@@H](CC(=O)O)NC(=O)[C@H](N)Cc1c[nH]c2ccccc12)C(=O)O) [GP3D-6 I VIII IX X, N-term NH2, C-term COOH]”, for which the “Lipolysis Activity measured as Glycerol (μM) release in media” value (shortened to “Lipolysis Activity measured as Glycerol”) in test [1] (25 μg/ml) was 18.07 µM; in test [1] (50 μg/ml), 32.53 µM; in test [1] (75 μg/ml) it was 47.82 µM; in test [1] (100 μg/ml), 51.90 µM; in test [2] (100 μg/ml), 360 µM.
As for “WDPEGVIF (H-[dW][dD][dP][dE]G[dV]I[dF]-OH; not fully specified (residue 7)) [GP3D-8 I X, N-term NH2, C-term COOH]”, the entries for the “Lipolysis Activity measured as Glycerol” value in test [2] (1 μg/ml), in test [2] (10 μg/ml) and in test [2] (100 μg/ml) were 616 µM, 465 µM and 441 µM, respectively.
Take “WDPEGVY (H-[dW][dD][dP][dE]G[dV][dY]-OH; SMILES CC(C)[C@@H](NC(=O)CNC(=O)[C@@H](CCC(=O)O)NC(=O)[C@H]1CCCN1C(=O)[C@@H](CC(=O)O)NC(=O)[C@H](N)Cc1c[nH]c2ccccc12)C(=O)N[C@H](Cc1ccc(O)cc1)C(=O)O) [GP3D-7 I VIII IX, N-term NH2, C-term COOH]”: in test [2] (10 μg/ml), the “Lipolysis Activity measured as Glycerol” value amounted to 314 µM.
Turning to “DPEGVIFY (H-[dD][dP][dE]G[dV][dI][dF][dY]-OH; not fully specified) [GP3D-8 I II, N-term NH2, C-term COOH]”, the entries for the “Lipolysis Activity measured as Glycerol” value in test [2] (1 μg/ml), in test [2] (10 μg/ml) and in test [2] (100 μg/ml) were 401 µM, 474 µM and 468 µM, respectively.
For the substance “TDPEGVIY (H-[dT][dD][dP][dE]G[dV][dI][dY]-OH; not fully specified) [GP3D-8 II IX, N-term NH2, C-term COOH]”, the entries for the “Lipolysis Activity measured as Glycerol” value in test [2] (1 μg/ml), in test [2] (10 μg/ml) and in test [2] (100 μg/ml) were 557 µM, 508 µM and 370 µM, respectively.
Take “WDPEGVIFY (H-[dW][dD][dP][dE]G[dV]I[dF][dY]-OH; not fully specified (residue 7)) [GP3D-9 I, N-term NH2, C-term COOH]”: the “Lipolysis Activity measured as Glycerol” value in test [2] (100 μg/ml) was found to be 344 µM.
Take “TWDPEG (H-[dT][dW][dD][dP][dE]G-OH; SMILES C[C@H](O)[C@@H](N)C(=O)N[C@H](Cc1c[nH]c2ccccc12)C(=O)N[C@H](CC(=O)O)C(=O)N1CCC[C@@H]1C(=O)N[C@H](CCC(=O)O)C(=O)NCC(=O)O) [GP3D-6 VII VIII IX X, N-term NH2, C-term COOH]”: the “Lipolysis Activity measured as Glycerol” value in test [2] (1 μg/ml) was found to be 404 µM; in test [2] (10 μg/ml), 327 µM.
Take “DPEGVFY (H-[dD][dP][dE]G[dV][dF][dY]-OH; SMILES CC(C)[C@@H](NC(=O)CNC(=O)[C@@H](CCC(=O)O)NC(=O)[C@H]1CCCN1C(=O)[C@H](N)CC(=O)O)C(=O)N[C@H](Cc1ccccc1)C(=O)N[C@H](Cc1ccc(O)cc1)C(=O)O) [GP3D-7 I II VIII, N-term NH2, C-term COOH]”: the “Lipolysis Activity measured as Glycerol” value in test [2] (1 μg/ml) was determined as 485 µM; in test [2] (10 μg/ml), 325 µM; in test [2] (100 μg/ml), 340 µM.
